# Reference: patent EP0454060B1, “3-(Mercaptoalkyl)-quinazoline-2,4(1H,3H)-diones, processes for their preparation, and pharmaceutical compositions” (priority 1990, dated 1991)
# Read-outs that look alike come from different tables or passages of the source.
# Legend:
# [1] = test system: primären Hühnerembryonalzellen (2 Tage alt); assay: Cell tolerance, microscopic reading; assay type: cell-based, Hühner; set-up: key: 0̸: Am 5. Tag der mikroskopischen Ablesung keine morphologischen Veränderungen der Zellen.; ++++: Komplette Veränderungen der Zellschicht in Form von Abrundung, Granulierung und Ablösen der Zellen von der Glaswand.; +++: Analoge Veränderungen bei 3/4 des Zellrasens.; ++: Analoge Veränderungen bei 1/2 des Zellrasens.; +: Analoge Veränderungen bei 1/4 des Zellrasens; conditions: HEZ, reading day 5
# Source text: (§1) 0̸ = Am 5. Tag der mikroskopischen Ablesung keine morphologischen Veränderungen der Zellen. ++++ = Komplette Veränderungen der Zellschicht in Form von Abrundung, Granulierung und Ablösen der Zellen von der Glaswand. +++ = Analoge Veränderungen bei 3/4 des Zellrasens. ++ = Analoge Veränderungen bei 1/2 des Zellrasens. + = Analoge Veränderungen bei 1/4 des Zellrasens.
# [2] = test system: Human-Fibroblasten (2 Tage alt); assay: Cell tolerance, microscopic reading; assay type: cell-based; set-up: key: 0̸: Am 5. Tag der mikroskopischen Ablesung keine morphologischen Veränderungen der Zellen.; ++++: Komplette Veränderungen der Zellschicht in Form von Abrundung, Granulierung und Ablösen der Zellen von der Glaswand.; +++: Analoge Veränderungen bei 3/4 des Zellrasens.; ++: Analoge Veränderungen bei 1/2 des Zellrasens.; +: Analoge Veränderungen bei 1/4 des Zellrasens; conditions: HFi, reading day 5
# Source text: as §1
# [3] = test system: MDBK (bovine Nierenzellen-Permanentzellinie); assay: Cell tolerance, microscopic reading; assay type: cell-based; set-up: key: 0̸: Am 5. Tag der mikroskopischen Ablesung keine morphologischen Veränderungen der Zellen.; ++++: Komplette Veränderungen der Zellschicht in Form von Abrundung, Granulierung und Ablösen der Zellen von der Glaswand.; +++: Analoge Veränderungen bei 3/4 des Zellrasens.; ++: Analoge Veränderungen bei 1/2 des Zellrasens.; +: Analoge Veränderungen bei 1/4 des Zellrasens; conditions: MDKB, reading day 5
# Source text: as §1
# [4] = test system: RH (humane Nierenzellen-Permanentzellinie); assay: Cell tolerance, microscopic reading; assay type: cell-based; set-up: key: 0̸: Am 5. Tag der mikroskopischen Ablesung keine morphologischen Veränderungen der Zellen.; ++++: Komplette Veränderungen der Zellschicht in Form von Abrundung, Granulierung und Ablösen der Zellen von der Glaswand.; +++: Analoge Veränderungen bei 3/4 des Zellrasens.; ++: Analoge Veränderungen bei 1/2 des Zellrasens.; +: Analoge Veränderungen bei 1/4 des Zellrasens; conditions: reading day 5
# Source text: as §1
# Vaccinia Lister [5] = assay type: cell-based, Vaccinia-Virus; conditions: for % Hemmung / Senkung des Virusertrages im Vergleich zur unbehandelten Kontrolle: Vaccinia Lister
# Influenza A/WSN = assay: One-step replication cycle on chick embryo cells; assay type: cell-based, Influenza-Virus; conditions: for % Hemmung / Senkung des Virusertrages im Vergleich zur unbehandelten Kontrolle: Influenza A/WSN
# [6] = test system: Vesicular-stomatitis Indiana; assay: One-step replication cycle on chick embryo cells; assay type: cell-based; conditions: Beispielreihe 2, HEZ
# Vaccinia Lister [7] = assay: One-step replication cycle on permanent human kidney cell line
# [8] = test system: Herpes simplex Typ 1 Kupka; assay: as above
# [9] = 125 µmol/l in maintenance medium
# [10] = 250 µmol/l in maintenance medium
# [11] = 500 µmol/l in maintenance medium
# [12] = 1000 µmol/l in maintenance medium
# [13] = 62,5 µmol/l in maintenance medium
# [14] = Beispielreihe 2, HEZ, 125 µmol/l, mean of three experiments
# [15] = Beispielreihe 2, HEZ, 250 µmol/l, mean of three experiments
# [16] = Beispielreihe 2, HEZ, 31,25 µmol/l, mean of three experiments
# [17] = Beispielreihe 2, HEZ, 31,25 µmol/l, mean of three experiments, 31.25 µM
# [18] = Beispielreihe 2, HEZ, 62,5 µmol/l, mean of three experiments
# [19] = Beispielreihe 2, HEZ, 62,5 µmol/l, mean of three experiments, 62.5 µM
# [20] = 250 µmol/l, mean of three experiments
# [21] = Beispielreihe 3, 125 µmol/l, mean of two experiments
# [22] = Beispielreihe 3, 250 µmol/l, mean of two experiments
# [23] = Beispielreihe 3, Herpes simplex Typ 1 Kupka, 125 µmol/l, mean of two experiments
# [24] = Beispielreihe 3, Herpes simplex Typ 1 Kupka, 250 µmol/l, mean of two experiments
# [25] = Beispielreihe 5b, Hühnerembryonalfibroblasten, 125 µmol/l
# [26] = Beispielreihe 5b, Hühnerembryonalfibroblasten, 250 µmol/l
# [27] = Beispielreihe 5b, Hühnerembryonalfibroblasten, 62,5 µmol/l
# [28] = Beispielreihe 5b, Hühnerembryonalfibroblasten, 62,5 µmol/l, 62.5 µM
# [29] = Beispielreihe 5a, Herpes simplex Typ 1, 125 µmol/l
# [30] = Beispielreihe 5a, Herpes simplex Typ 1, 250 µmol/l
structure (smiles),measurement,setting,value
"O=c1[nH]c2ccccc2c(=O)n1CCS [Beispiel 1, 3-(2-Mercaptoethyl)-chinazolin-2,4(1H,3H)-dion]",Zellverträglichkeit,[1]; [9],0̸
same,Zellverträglichkeit,[1]; [10],0̸
same,Zellverträglichkeit,[1]; [11],+
same,Zellverträglichkeit,[1]; [12],+++
same,Zellverträglichkeit,[1]; [13],0̸
same,Zellverträglichkeit,[2]; [9],0̸
same,Zellverträglichkeit,[2]; [10],0̸
same,Zellverträglichkeit,[2]; [11],0̸
same,Zellverträglichkeit,[2]; [12],++
same,Zellverträglichkeit,[2]; [13],0̸
same,Zellverträglichkeit,[3]; [9],0̸
same,Zellverträglichkeit,[3]; [10],0̸
same,Zellverträglichkeit,[3]; [11],++
same,Zellverträglichkeit,[3]; [12],++++
same,Zellverträglichkeit,[3]; [13],0̸
same,Zellverträglichkeit,[4]; [9],0̸
same,Zellverträglichkeit,[4]; [10],0̸
same,Zellverträglichkeit,[4]; [11],++
same,Zellverträglichkeit,[4]; [12],+++
same,Zellverträglichkeit,[4]; [13],0̸
same,% Hemmung,Vaccinia Lister [5]; [14],"99,99%"
same,Senkung des Virusertrages im Vergleich zur unbehandelten Kontrolle,Vaccinia Lister [5]; [14],"4,0 log10 TCID50/0,2 ml"
same,% Hemmung,Vaccinia Lister [5]; [15],"> 99,99%"
same,Senkung des Virusertrages im Vergleich zur unbehandelten Kontrolle,Vaccinia Lister [5]; [15],"5,67 log10 TCID50/0,2 ml"
same,Senkung des Virusertrages im Vergleich zur unbehandelten Kontrolle,Vaccinia Lister [5]; [16],"1,0 log10 TCID50/0,2 ml"
same,% Hemmung,Vaccinia Lister [5]; [17],"99,0%"
same,Senkung des Virusertrages im Vergleich zur unbehandelten Kontrolle,Vaccinia Lister [5]; [18],"2,5 log10 TCID50/0,2 ml"
same,% Hemmung,Vaccinia Lister [5]; [19],"99,68%"
same,Therapeutischer Index = Verhältnis von maximal verträglicher und minimal wirksamer Dosis,"Vaccinia Lister [5]; für Vaccinia-Virus, HEZ",8
same,% Hemmung,Influenza A/WSN; [14],"> 99,99%"
same,Senkung des Virusertrages im Vergleich zur unbehandelten Kontrolle,Influenza A/WSN; [14],"4,67 log10 TCID50/0,2 ml"
same,% Hemmung,Influenza A/WSN; [15],"> 99,99%"
same,Senkung des Virusertrages im Vergleich zur unbehandelten Kontrolle,Influenza A/WSN; [15],"6,23 log10 TCID50/0,2 ml"
same,Senkung des Virusertrages im Vergleich zur unbehandelten Kontrolle,Influenza A/WSN; [16],"2,5 log10 TCID50/0,2 ml"
same,% Hemmung,Influenza A/WSN; [17],"99,50%"
same,Senkung des Virusertrages im Vergleich zur unbehandelten Kontrolle,Influenza A/WSN; [18],"4,25 log10 TCID50/0,2 ml"
same,% Hemmung,Influenza A/WSN; [19],"> 99,99%"
same,Therapeutischer Index = Verhältnis von maximal verträglicher und minimal wirksamer Dosis,"Influenza A/WSN; für Influenza-Virus, HEZ",8
same,Senkung des Virusertrages im Vergleich zur unbehandelten Kontrolle,"[6]; 125 µmol/l, mean of three experiments","0,5 log10 TCID50/0,2 ml"
same,% Hemmung,"[6]; 125 µmol/l, n.s. = nicht signifikant",n. s.
same,% Hemmung,[6]; [20],"99,9%"
same,Senkung des Virusertrages im Vergleich zur unbehandelten Kontrolle,[6]; [20],"3,0 log10 TCID50/0,2 ml"
same,% Hemmung,Vaccinia Lister [7]; [21],"> 99,99%"
same,Senkung des Virusertrages im Vergleich zur unbehandelten Kontrolle,Vaccinia Lister [7]; [21],"> 4,0 log10 TCID50/0,2 ml"
same,% Hemmung,Vaccinia Lister [7]; [22],"> 99,99%"
same,Senkung des Virusertrages im Vergleich zur unbehandelten Kontrolle,Vaccinia Lister [7]; [22],"> 4,0 log10 TCID50/0,2 ml"
same,Senkung des Virusertrages im Vergleich zur unbehandelten Kontrolle,"Vaccinia Lister [7]; Beispielreihe 3, 31,25 µmol/l, mean of two experiments","3,5 log10 TCID50/0,2 ml"
same,% Hemmung,"Vaccinia Lister [7]; Beispielreihe 3, 31,25 µmol/l, mean of two experiments, 31.25 µM","> 99,9%"
same,Senkung des Virusertrages im Vergleich zur unbehandelten Kontrolle,"Vaccinia Lister [7]; Beispielreihe 3, 62,5 µmol/l, mean of two experiments","4,0 log10 TCID50/0,2 ml"
same,% Hemmung,"Vaccinia Lister [7]; Beispielreihe 3, 62,5 µmol/l, mean of two experiments, 62.5 µM","99,99%"
same,% Hemmung,[8]; [23],"> 99,99%"
same,Senkung des Virusertrages im Vergleich zur unbehandelten Kontrolle,[8]; [23],"5,5 log10 TCID50/0,2 ml"
same,% Hemmung,[8]; [24],"> 99,99%"
same,Senkung des Virusertrages im Vergleich zur unbehandelten Kontrolle,[8]; [24],"6,0 log10 TCID50/0,2 ml"
same,Senkung des Virusertrages im Vergleich zur unbehandelten Kontrolle,"[8]; Beispielreihe 3, Herpes simplex Typ 1 Kupka, 62,5 µmol/l, mean of two experiments","0,75 log10 TCID50/0,2 ml"
same,% Hemmung,"[8]; Beispielreihe 3, Herpes simplex Typ 1 Kupka, 62,5 µmol/l, n. s. = nicht signifikant",n. s.
"COc1cc2[nH]c(=O)n(CCCS)c(=O)c2cc1OC [Beispiel 2, 3-(3-Mercaptoprop-1-yl)-6,7-dimethoxychinazolin-2,4(1H,3H)-dion]",% Hemmung,Vaccinia Lister [5]; [25],"> 99,99%"
same,Senkung des Virusertrages im Vergleich zur unbehandelten Kontrolle,Vaccinia Lister [5]; [25],"5,0 log10 TCID50/02 ml"
same,% Hemmung,Vaccinia Lister [5]; [26],"> 99,99%"
same,Senkung des Virusertrages im Vergleich zur unbehandelten Kontrolle,Vaccinia Lister [5]; [26],"5,0 log10 TCID50/02 ml"
same,Senkung des Virusertrages im Vergleich zur unbehandelten Kontrolle,"Vaccinia Lister [5]; Beispielreihe 5b, Hühnerembryonalfibroblasten, 31,25 µmol/l","3,0 log10 TCID50/02 ml"
same,% Hemmung,"Vaccinia Lister [5]; Beispielreihe 5b, Hühnerembryonalfibroblasten, 31,25 µmol/l, 31.25 µM","99,9%"
same,Senkung des Virusertrages im Vergleich zur unbehandelten Kontrolle,Vaccinia Lister [5]; [27],"3,5 log10 TCID50/02 ml"
same,% Hemmung,Vaccinia Lister [5]; [28],"99,93%"
same,% Hemmung,Influenza A/WSN; [25],"> 99,99%"
same,Senkung des Virusertrages im Vergleich zur unbehandelten Kontrolle,Influenza A/WSN; [25],"5,0 log10 TCID50/02 ml"
same,% Hemmung,Influenza A/WSN; [26],"> 99,99%"
same,Senkung des Virusertrages im Vergleich zur unbehandelten Kontrolle,Influenza A/WSN; [26],"5,0 log10 TCID50/02 ml"
same,Senkung des Virusertrages im Vergleich zur unbehandelten Kontrolle,Influenza A/WSN; [27],"2,0 log10 TCID50/02 ml"
same,% Hemmung,Influenza A/WSN; [28],"99,0%"
same,% Hemmung,"Vaccinia Lister [7]; Beispielreihe 5a, 125 µmol/l","> 99,99%"
same,Senkung des Virusertrages im Vergleich zur unbehandelten Kontrolle,"Vaccinia Lister [7]; Beispielreihe 5a, 125 µmol/l","5,0 log10 TCID50/0,2 ml"
same,% Hemmung,"Vaccinia Lister [7]; Beispielreihe 5a, 250 µmol/l","> 99,99%"
same,Senkung des Virusertrages im Vergleich zur unbehandelten Kontrolle,"Vaccinia Lister [7]; Beispielreihe 5a, 250 µmol/l","5,0 log10 TCID50/0,2 ml"
same,Senkung des Virusertrages im Vergleich zur unbehandelten Kontrolle,"Vaccinia Lister [7]; Beispielreihe 5a, 31,25 µmol/l","2,84 log10 TCID50/0,2 ml"
same,% Hemmung,"Vaccinia Lister [7]; Beispielreihe 5a, 31,25 µmol/l, 31.25 µM","99,84%"
same,Senkung des Virusertrages im Vergleich zur unbehandelten Kontrolle,"Vaccinia Lister [7]; Beispielreihe 5a, 62,5 µmol/l","5,0 log10 TCID50/0,2 ml"
same,% Hemmung,"Vaccinia Lister [7]; Beispielreihe 5a, 62,5 µmol/l, 62.5 µM","> 99,99%"
same,% Hemmung,[8]; [29],"> 99,99%"
same,Senkung des Virusertrages im Vergleich zur unbehandelten Kontrolle,[8]; [29],"6,5 log10 TCID50/0,2 ml"
same,% Hemmung,[8]; [30],"> 99,99%"
same,Senkung des Virusertrages im Vergleich zur unbehandelten Kontrolle,[8]; [30],"6,5 log10 TCID50/0,2 ml"
same,Senkung des Virusertrages im Vergleich zur unbehandelten Kontrolle,"[8]; Beispielreihe 5a, Herpes simplex Typ 1, 31,25 µmol/l","3,67 log10 TCID50/0,2 ml"
same,% Hemmung,"[8]; Beispielreihe 5a, Herpes simplex Typ 1, 31,25 µmol/l, 31.25 µM","99,97%"
same,Senkung des Virusertrages im Vergleich zur unbehandelten Kontrolle,"[8]; Beispielreihe 5a, Herpes simplex Typ 1, 62,5 µmol/l","5,0 log10 TCID50/0,2 ml"
same,% Hemmung,"[8]; Beispielreihe 5a, Herpes simplex Typ 1, 62,5 µmol/l, 62.5 µM","> 99,99%"
